In patent publication US20060009401A1, “Method for treatment and prevention of herpes zoster by topical application” (aRigen, Inc., priority 2004, published 2006):

Columns and labels:
[1] = target: T1, dihydropyrimidine dehydrogenase (DPD) (Homo sapiens, UniProt Q12882); conditions: re-absorbed BVU, metabolite of oral sorivudine; cited from earlier work
T1 sequence (Q12882 4-1025): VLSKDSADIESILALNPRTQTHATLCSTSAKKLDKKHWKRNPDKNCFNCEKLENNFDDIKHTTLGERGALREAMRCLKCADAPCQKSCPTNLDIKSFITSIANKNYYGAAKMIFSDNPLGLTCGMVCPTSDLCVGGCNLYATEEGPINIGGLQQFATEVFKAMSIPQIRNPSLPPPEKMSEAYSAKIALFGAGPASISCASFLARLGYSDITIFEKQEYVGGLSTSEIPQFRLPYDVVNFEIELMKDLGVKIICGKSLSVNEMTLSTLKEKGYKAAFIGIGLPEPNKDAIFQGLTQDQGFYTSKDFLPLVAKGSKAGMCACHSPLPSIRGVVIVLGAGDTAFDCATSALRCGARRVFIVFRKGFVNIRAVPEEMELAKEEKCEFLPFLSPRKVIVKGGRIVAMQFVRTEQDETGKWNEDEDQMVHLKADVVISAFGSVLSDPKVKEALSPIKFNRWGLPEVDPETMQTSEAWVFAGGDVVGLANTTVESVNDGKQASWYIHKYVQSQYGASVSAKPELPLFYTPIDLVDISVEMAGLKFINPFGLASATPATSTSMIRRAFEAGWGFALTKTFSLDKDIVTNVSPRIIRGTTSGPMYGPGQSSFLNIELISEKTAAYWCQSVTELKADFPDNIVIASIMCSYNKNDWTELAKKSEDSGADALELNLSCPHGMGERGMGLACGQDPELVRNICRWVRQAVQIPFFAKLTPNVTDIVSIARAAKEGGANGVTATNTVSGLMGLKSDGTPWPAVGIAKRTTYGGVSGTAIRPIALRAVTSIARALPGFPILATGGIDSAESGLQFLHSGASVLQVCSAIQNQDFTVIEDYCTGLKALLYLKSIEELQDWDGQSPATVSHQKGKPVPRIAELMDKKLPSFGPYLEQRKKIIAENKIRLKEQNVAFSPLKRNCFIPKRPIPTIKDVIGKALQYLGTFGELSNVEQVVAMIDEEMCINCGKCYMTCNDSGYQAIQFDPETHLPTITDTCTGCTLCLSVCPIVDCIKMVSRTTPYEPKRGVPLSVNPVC

[2] = Study of interaction with 5-FU in rats; format: in vivo, Female Wister rats; conditions: for interaction with 5-FU: Groups 5 and 6, preparations for topical use combined with 5-FU; for Body weight (pre.) / Feed intake (pre.): before test
Excerpt: Interactions with 5-FU, a fluorouracil-based anticancer drug, were studies using sorivudine (BVAU) 3% cream and CVAU 3% cream. Female Wister rats were raised for one week, and hair from the blade bone to the waist was shaved under anesthesia. The preparations for topical use were applied two times a day for one week. The expression “p.o.” appearing in the table means oral administration.
Erythrocyte count and leukocyte count are values measured seven days after the start of administration.

[3] = oral agent, administered at the same time; cited from earlier work
HSV-1 [4] = conditions: against HSV-1; cited from earlier work
VZV = conditions: against VZV; cited from earlier work
EBV = conditions: against EBV; cited from earlier work
HSV-1 [5] = conditions: application to the skin, mice; cited from earlier work
[6] = cited from earlier work
[7] = BVAU 30 mg/kg p.o. + 5-FU 60 mg/kg p.o.
[8] = BVAU 30 mg/kg p.o. + 5-FU 60 mg/kg p.o., seven days after start
[9] = single agent p.o. (BVAU 30 mg/kg; 5-FU 60 mg/kg)
[10] = single agent p.o. (BVAU 30 mg/kg; 5-FU 60 mg/kg), seven days after start of administration

O=c1[nH]cc(/C=C/Br)c(=O)[nH]1 [BVU, bromovinyluracil]
inhibition of DPD [1]: inhibits

O=c1[nH]c(=O)n([C@@H]2O[C@H](CO)[C@@H](O)[C@@H]2O)cc1/C=C/Cl [CVAU, 1-β-D-arabinofuranosyl-5-[(E)-2-chrolovinyl]uracil]
interaction with 5-FU [2]: no interaction observed

O=c1[nH]c(=O)n([C@@H]2O[C@H](CO)[C@@H](O)[C@@H]2O)cc1/C=C/Br [sorivudine, 1-β-D-arabinofuranosyl-5-[(E)-2-bromovinyl]uracil]
adverse effect due to drug interaction with fluorouracil-based anticancer drugs [3]: died because of the adverse effect due to drug interaction
antiviral activity (HSV-1 [4]): extremely potent antiviral activity
antiviral activity (VZV): extremely potent antiviral activity
antiviral activity (EBV): extremely potent antiviral activity
skin symptoms caused by inoculation with HSV-1 (HSV-1 [5]): suppresses the skin symptoms
solubility [6]: slightly soluble
Body weight (pre.) [2, 7]: 125
Feed intake (pre.) [2, 7]: 16
Body weight (7 d) [2, 8]: 88
Erythrocyte count [2, 8]: 892 10^4/mm^3
Feed intake (7 d) [2, 8]: 3
leukocyte count [2, 8]: 5.8 10^2/mm^3
side effect due to interaction with 5-FU ([2]; Group 4, orally administered with 5-FU (positive control)): significant weight loss and myelo-suppression
interaction with 5-FU [2]: no interaction observed
Body weight (pre.) [2, 9]: 124
Feed intake (pre.) [2, 9]: 15
Body weight (7 d) [2, 10]: 143
Erythrocyte count [2, 10]: 653 10^4/mm^3
Feed intake (7 d) [2, 10]: 16
leukocyte count [2, 10]: 45.6 10^2/mm^3
